Reference: US7868019B2, “Dermatitis treating agent” (Mitsubishi Tanabe Pharma Corporation, priority 2005, dated 2011)

Tests used:
[1] = test system: Dermatitis Models Induced by Repeated Topical Application of Hapten; experiment: Dermatitis model induced by repeated topical application of hapten (oxazolone, ear swelling); format: in vivo, BALB/c male mice; details: BALB/c mice; repeated topical challenge (Day 0, 2, 4, 7, 9) with 0.5% oxazolone containing 1% (w/v) test compound; ear thickness 24 hours after final challenge at Day 9 vs control
Protocol: Effects of the respective test compounds were expressed as ear swelling inhibitory rate (%) given by the following formula. Ear swelling inhibitory rate (%)=[1−(mean ear swelling of group treated with test compound/mean ear swelling of control group)]×100 Note) Ear swelling=Ear thickness 24 hours after challenge at Day 7−Ear thickness before challenge at Day 7 (2) Effects of Test Compounds on Dermatitis Models Induced by Repeated Topical Application of Hapten (Method) […], BALE/c male mice (BALB/c AnNCrlCrlj, 5-weeks old, acclimating term: one week, body weight: 20 to 30 g, one group: 4 to 6 mice, available from CHARLES RIVER LABORATORIES JAPAN, INC.) were sensitized on both sides of right ears by a topical application of 20 μL (10 μL for each side) 0.5% (w/v) oxazolone solution (Solvent: acetone)(Day−7). At the respective points of the 7th day (Day 0), 9th day (Day 2), 11th day (Day 4), 14th day (Day 7) and 16th day (Day 9) after sensitization, mice were challenged on the both sides of right ears by topical application of 20 μL (10 μL for each side) 0.5% (w/v) oxazolone solution containing 1% (w/v) of the respective test compounds (Solvent: acetone or an equal amount mixture of acetone/ethanol). Ear thickness was measured before challenge of the test compound solution or suspension by using a thickness gauge. At the final day (Day 9), ear thickness was measured also 24 hours after challenge. In control group, sensitized animals were challenged with 20 μL 0.5% (w/v) oxazolone solution containing no test compound (Solvent: acetone) on right ears. Effects of the respective test compounds were expressed as ear swelling inhibitory rate (%) given by following formula. Ear swelling inhibitory rate (%)=[1−(mean ear swelling of group treated with test compound/mean ear swelling of control group)]×100 Note) Ear swelling=(Thickness of ear 24 hours after final challenge at Day 9)−(Thickness of ear before sensitization at Day−7)

Contact Dermatitis Model = experiment: Contact dermatitis model (oxazolone sensitization and challenge, ear swelling); format: in vivo, BALB/c male mice; details: BALB/c mice, oxazolone-sensitized; topical challenge on right ear at Day 7 with 0.5% oxazolone containing 1% (w/v) test compound; ear thickness 24 hours after challenge vs control
Protocol: (1) Effects of Test Compounds in Contact Dermatitis Model (Method) BALB/c male mice (BALB/c AnNCrlCrlj, 5-weeks old, acclimating term: one week, body weight: 20 to 30 g, one group: 4 to 6 mice, available from CHARLES RIVER LABORATORIES JAPAN, INC.) were sensitized by epicutaneous application of 100 μL 0.5% (w/v) oxazolone solution (Solvent: acetone) on the shaved abdomen (Day 0). At the 7th day (Day 7) after sensitization, mice were challenged on both sides of right ears by topical application of 20 μL (10 μL for each side) 0.5% (w/v) oxazolone solution containing 1% (w/v) of respective test compounds (Solvent: acetone or an equal amount mixture of acetone/ethanol). Ear thickness was measured before and 24 hours after challenge by using a thickness gauge. In the control group, sensitized animals were challenged with 20 μL 0.5% (w/v) oxazolone solution containing no test compound (Solvent: acetone) on right ears. Effects of the respective test compounds were expressed as ear swelling inhibitory rate (%) given by the following formula. Ear swelling inhibitory rate (%)=[1−(mean ear swelling of group treated with test compound/mean ear swelling of control group)]×100 Note) Ear swelling=Ear thickness 24 hours after challenge at Day 7−Ear thickness before challenge at Day 7 (2) Effects of Test Compounds on Dermatitis Models Induced by Repeated Topical Application of Hapten (Method)

| Compound | Ear swelling inhibitory rate (%) Dermatitis model induced by repeated application of Hapten [1] [%] | Ear swelling inhibitory rate (%) Contact dermatitis model (Contact Dermatitis Model) [%] |
| --- | --- | --- |
| (3S)-1-[2-[4-(dimethylaminophenyl)phthalazin-1(2H)-one-2-yl]pyridin-4-yl]-3,4-dihydro-3-hydroxymethyl-6,7-dimethoxy-isoquinoline [(11)] | 51.0 | 69.0 |
| 1-[2-[4-(dimethylaminophenyl)phthalazin-1(2H)-one-2-yl]-pyridin-4-yl]-2,3-bis(hydroxymethyl)-6,7-dimethoxy-naphthalene [(9)] | 60.0 | 52.0 |
| COc1cc2cc(CO)c(CO)c(-c3ccnc(-n4c(=O)cc(NCCCNC5CCCCC5)c5ccccc54)c3)c2cc1OC [(8), 1-[2-[1,2-dihydro-4-[3-(cyclohexylamino)propylamino]-2-oxoquinolin-1-yl]pyridin-4-yl]-2,3-bis(hydroxymethyl)-6,7-dimethoxynaphthalene] | 37.0 | 75.0 |
| COc1cc2cc(CO)c(CO)c(-c3ccnc(-n4nc(-c5cccnc5)c5cc(OC)c(OC)cc5c4=O)c3)c2cc1OC [(10), 1-[2-[6,7-dimethoxy-4-(3-pyridyl)phthalazin-1(2H)-one-2-yl]pyridin-4-yl]-2,3-bis(hydroxymethyl)-6,7-dimethoxy-naphthalene] |  | 66.0 |
